The values that follow come from paper PMC6726534 (Biotechnology and bioengineering, 2019).

In brackets after ≈: the same amount, converted by molar mass. Where a SMILES comes first, the peptide text is derived from it.

Holding throughout (type): cell-based
The test system of one data set is E. coli FVEC 638. As to conditions: FVEC 638, 1 h.
Data set [1] deals with Salmonella enterica serovar Enteritidis MH91989. As to conditions: serovar Enteritidis MH91989, 1 h.
Another data set relates to E. coli J2210. The settings on record: J2210, 1 h.
In data set [2] the test system is Salmonella enterica serovar Typhimurium ATCC SL1344. As to conditions: ATCC SL1344, 1 h.
The test system of another data set is E. coli JW0013. The settings on record: JW0013, 1 h.
For data set [3], the system named is Salmonella Infantis #129 B. The settings on record: 1 h.
The next data set concerns E. coli FVEC 964. As to conditions: FVEC 964, 1 h.
The next data set relates to E. coli PUTI 379. The settings on record: PUTI 379, 1 h.
In data set [4] the test system is Salmonella enterica serovar Newport. As to conditions: 1 h.
For a further data set, the system named is E. coli JJ2489. As to conditions: JJ2489, 1 h.
Data set [5] relates to Salmonella enterica serovar Tennessee. As to conditions: 1 h.
The subject of data set [6] is A431 human epidermoid carcinoma cells. The data set is described as follows: Cytotoxicity assay. As to conditions: 10 μmol/L peptide, 24 h, MTT assay, duplicate, normalized to PBS.
In data set [7] the test system is MDA-MB-231 human breast adenocarcinoma cells. The data set is described as follows: Cytotoxicity assay. The settings on record: 10 μmol/L peptide, 24 h, MTT assay, duplicate, normalized to PBS.

With `CC(C)C[C@H](NC(=O)[C@H](CCCNC(=N)N)NC(=O)[C@@H]1CCCN1C(=O)[C@H](Cc1c[nH]cn1)NC(=O)[C@@H]1CCCN1C(=O)[C@@H]1CCCN1C(=O)[C@H](CCCNC(=N)N)NC(=O)[C@@H]1CCCN1C(=O)[C@H](CCC(N)=O)NC(=O)[C@@H]1CCCN1C(=O)[C@H](CCCCN)NC(=O)[C@H](Cc1ccc(O)cc1)NC(=O)[C@@H](NC(=O)[C@@H]1CCCN1C(=O)[C@H](CCCCN)NC(=O)[C@H](CC(N)=O)NC(=O)[C@H](CC(N)=O)NC(=O)CN)C(C)C)C(=O)O` [Api_R4K/I8K] (H-GNNKPVYKPQPRPPHPRL-OH), the minimal inhibitory concentration (MIC) stood at 0.048 ± 0.011 µM (≈ 0.101 µg/mL) in the data set on E. coli FVEC 638; 0.031 ± 0.014 µM (≈ 0.065 µg/mL) in [1]; 0.034 ± 0.017 µM (≈ 0.0712 µg/mL) with E. coli J2210; 0.034 ± 0.017 µM (≈ 0.0712 µg/mL) in [2]; 0.012 ± 0.003 µM (≈ 0.0251 µg/mL) against E. coli JW0013; 0.024 ± 0.006 µM (≈ 0.0503 µg/mL) in data set [3]. The MIC with E. coli FVEC 964 was found to be 0.048 ± 0.011 µM (≈ 0.101 µg/mL); with E. coli PUTI 379, 0.048 ± 0.011 µM (≈ 0.101 µg/mL); in [4], 0.024 ± 0.006 µM (≈ 0.0503 µg/mL); against E. coli JJ2489 it was 0.031 ± 0.014 µM (≈ 0.065 µg/mL); in data set [5] it was 0.024 ± 0.006 µM (≈ 0.0503 µg/mL).

In the case of `CC(C)C[C@H](NC(=O)[C@H](CCCNC(=N)N)NC(=O)[C@@H]1CCCN1C(=O)[C@H](Cc1c[nH]cn1)NC(=O)[C@@H]1CCCN1C(=O)[C@@H]1CCCN1C(=O)[C@H](CCCNC(=N)N)NC(=O)[C@@H]1CCCN1C(=O)[C@H](CCC(N)=O)NC(=O)[C@@H]1CCCN1C(=O)[C@H](CCCNC(=N)N)NC(=O)[C@H](Cc1ccc(O)cc1)NC(=O)[C@@H](NC(=O)[C@@H]1CCCN1C(=O)[C@H](CCCCN)NC(=O)[C@H](CC(N)=O)NC(=O)[C@H](CC(N)=O)NC(=O)CN)C(C)C)C(=O)O` [Api_R4K/I8R] (H-GNNKPVYRPQPRPPHPRL-OH), the minimal inhibitory concentration (MIC) turned out to be 0.048 ± 0.011 µM (≈ 0.102 µg/mL) in the data set with E. coli FVEC 638; 0.031 ± 0.014 µM (≈ 0.0658 µg/mL) in [1]; 0.034 ± 0.017 µM (≈ 0.0722 µg/mL) against E. coli J2210; 0.034 ± 0.017 µM (≈ 0.0722 µg/mL) in data set [2]; 0.012 ± 0.003 µM (≈ 0.0255 µg/mL) with E. coli JW0013; 0.024 ± 0.006 µM (≈ 0.051 µg/mL) in [3]. The MIC against E. coli FVEC 964 is 0.048 ± 0.011 µM (≈ 0.102 µg/mL); against E. coli PUTI 379, 0.048 ± 0.011 µM (≈ 0.102 µg/mL); in data set [4] it was 0.017 ± 0.009 µM (≈ 0.0361 µg/mL); against E. coli JJ2489, 0.034 ± 0.017 µM (≈ 0.0722 µg/mL); in [5], 0.024 ± 0.006 µM (≈ 0.051 µg/mL).

With `CC[C@H](C)[C@H](NC(=O)[C@H](Cc1ccc(O)cc1)NC(=O)[C@@H](NC(=O)[C@@H]1CCCN1C(=O)[C@H](CCCNC(=N)N)NC(=O)[C@H](CC(N)=O)NC(=O)[C@H](CC(N)=O)NC(=O)CN)C(C)C)C(=O)N1CCC[C@H]1C(=O)N[C@@H](CCC(N)=O)C(=O)N1CCC[C@H]1C(=O)N[C@@H](CCCNC(=N)N)C(=O)N1CCC[C@H]1C(=O)N1CCC[C@H]1C(=O)N[C@@H](Cc1c[nH]cn1)C(=O)N1CCC[C@H]1C(=O)N[C@@H](CCCNC(=N)N)C(=O)N[C@@H](CC(C)C)C(=O)O` [Api_WT, reference compound] (H-GNNRPVYIPQPRPPHPRL-OH), the MIC was found to be 0.048 ± 0.011 µM (≈ 0.101 µg/mL) against E. coli FVEC 638; 0.048 ± 0.011 µM (≈ 0.101 µg/mL) in data set [1]; 0.048 ± 0.011 µM (≈ 0.101 µg/mL) against E. coli J2210; 0.048 ± 0.011 µM (≈ 0.101 µg/mL) in data set [2]; 0.024 ± 0.006 µM (≈ 0.0506 µg/mL) with E. coli JW0013; 0.048 ± 0.011 µM (≈ 0.101 µg/mL) in data set [3]. Further, the minimum inhibitory concentration (MIC) in the data set on E. coli FVEC 964 was 0.048 ± 0.011 µM (≈ 0.101 µg/mL); against E. coli PUTI 379, 0.048 ± 0.011 µM (≈ 0.101 µg/mL); in data set [4] it was 0.031 ± 0.014 µM (≈ 0.0654 µg/mL); with E. coli JJ2489, 0.031 ± 0.014 µM (≈ 0.0654 µg/mL); in data set [5], 0.048 ± 0.011 µM (≈ 0.101 µg/mL).

As to `CC[C@H](C)[C@H](NC(=O)[C@H](CCCNC(=N)N)NC(=O)[C@@H](N)CCCNC(=N)N)C(=O)N[C@@H](CCCCN)C(=O)N1CCC[C@H]1C(=O)N[C@@H](CCCNC(=N)N)C(=O)N1CCC[C@H]1C(=O)N1CCC[C@H]1C(=O)N[C@@H](CCCNC(=N)N)C(=O)N[C@@H](CC(C)C)C(=O)N1CCC[C@H]1C(=O)N[C@@H](CCCNC(=N)N)C(=O)N1CCC[C@H]1C(=O)N[C@@H](CCCNC(=N)N)C(=O)N1CCC[C@H]1C(=O)N[C@@H](CCCCN)C(=O)O` [Bac_R4K/R16K] (H-RRIKPRPPRLPRPRPK-OH), the MIC in [1] came out at 0.157 ± 0.054 µM (≈ 0.317 µg/mL); against E. coli J2210 it was 0.120 ± 0.028 µM (≈ 0.242 µg/mL); in data set [2], 0.120 ± 0.028 µM (≈ 0.242 µg/mL); against E. coli JW0013, 0.060 ± 0.014 µM (≈ 0.121 µg/mL); against E. coli JJ2489, 0.120 ± 0.028 µM (≈ 0.242 µg/mL).

In the case of `CC[C@H](C)[C@H](NC(=O)[C@@H]1CCCN1C(=O)[C@H](CCCCN)NC(=O)[C@@H]1CCCN1C(=O)[C@@H]1CCCN1C(=O)[C@@H](NC(=O)[C@@H]1CCCN1C(=O)[C@H](CCCNC(=N)N)NC(=O)[C@@H]1CCCN1C(=O)[C@H](CCCNC(=N)N)NC(=O)[C@H](Cc1ccc(O)cc1)NC(=O)[C@H](CO)NC(=O)CNC(=O)[C@H](CCCCN)NC(=O)[C@H](CC(=O)O)NC(=O)[C@@H](N)C(C)C)[C@@H](C)O)C(=O)N[C@@H](Cc1ccc(O)cc1)C(=O)N[C@@H](CC(N)=O)C(=O)N[C@@H](CCCNC(=N)N)C(=O)N[C@@H](CC(N)=O)C(=O)O` [Pyr_L7R/R14K] (H-VDKGSYRPRPTPPKPIYNRN-OH), the “toxicity to A431 cells” value in data set [6] is given as “no toxicity”. Besides, in data set [7], the “toxicity towards MDA-MB-231” value is given as “None of these PrAMPs exhibited any toxicity”.

As for `CC[C@H](C)[C@H](NC(=O)[C@@H]1CCCN1C(=O)[C@H](CCCNC(=N)N)NC(=O)[C@@H]1CCCN1C(=O)[C@@H]1CCCN1C(=O)[C@@H](NC(=O)[C@@H]1CCCN1C(=O)[C@H](CCCNC(=N)N)NC(=O)[C@@H]1CCCN1C(=O)[C@H](CC(C)C)NC(=O)[C@H](Cc1ccc(O)cc1)NC(=O)[C@H](CO)NC(=O)CNC(=O)[C@H](CCCCN)NC(=O)[C@H](CC(=O)O)NC(=O)[C@@H](N)C(C)C)[C@@H](C)O)C(=O)N[C@@H](Cc1ccc(O)cc1)C(=O)N[C@@H](CC(N)=O)C(=O)N[C@@H](CCCNC(=N)N)C(=O)N[C@@H](CC(N)=O)C(=O)O` [Pyr_WT, reference compound] (H-VDKGSYLPRPTPPRPIYNRN-OH), the “toxicity to A431 cells” value in data set [6] is “no toxicity”. For the same compound, the “toxicity towards MDA-MB-231” value in data set [7] is on record as “None of these PrAMPs exhibited any toxicity”.
